Assays:
Assay type in all cases: cell-based
[1] = system: MatTek EFT-400 full thickness tissues; experiment: DNA microarray gene expression in skin equivalents, complex vs individual ingredients (Example 5); set-up: key to Genes up and downregulation in pathway: + = up-regulated; − = down-regulated; *non-significant down-regulation, thus, regulation is considered as non-affected (NA); settings: for Up-Regulated Genes (number): cut off of two fold change of adjusted Fold Change, 48 hours
Protocol: MatTek EFT-400 full thickness tissues were used as the model for this study. Upon arrival, the full thickness tissues were placed into 6 wells plates with 2 ml of culture media and incubated overnight at 37±2° C. and 5±1% CO2. After this overnight incubation the culture media was replaced with 5 ml of fresh media and the tissues were treated topically with the test materials prepared in distilled water as follows:
After the application of the test materials the tissues were incubated at 37±2° C. and […] for 48 hours.
At the end of the treatment period, the tissues were rinsed and transferred to a 2 ml centrifuge tube containing 700 μl of lysis buffer and homogenized. After centrifuging at 14,000×g for 10 minutes at 4° C. the supernatant from each tube was transferred to a new 1.5 ml tube and mixed with and equal volume of 64% ethanol. After mixing the solutions was transferred to glass fiber filter cartridges and the cartridges were loaded into a 1.5 ml collection tube centrifuged for 1 minute at 14,000 RPM in a Napco 2002 Microcentrifuge with a DA-6T fixed angle rotor. The flow through was discarded and any remaining mixture was loaded into the filter cartridge and the centrifugation process was repeated until all of the mixture had been processed. The filter was then washed to remove any residual cellular debris from the RNA bound to the glass fibers by subsequently applying 700 μl of wash solution 1 (1 time) and 500 μl of wash solution 2 (2 times) to the filter cartridge and centrifuging at 14,000 RPM for 1 minute to pass each wash through the cartridge. After each wash, the flow through was discarded. After the final wash one final spin was performed without wash solution to remove any residual wash solution in the filter cartridge. The RNA bound to the glass fibers within the cartridge was then eluted by applying 40 μl of TE buffer (10 mM Tris-HCl, 1 mM EDTA, preheated to 70-80° C.) to the cartridge and centrifuging the cartridge in a new collection tube at 14,000 RPM for one minute. The elution process was then repeated a second time using 20 μl of TE buffer.
First Strand cDNA Synthesis: To start the first strand synthesis, 10 μl of total RNA for each sample was added to a 600 μl PCR tube and the total volume of liquid in the tube will be adjusted to 11 μl with DEPC H2O. Next, 1 μl of T7 Oligo(dT) primer was added and the tube was incubated in a water bath at 70±2° C. for 10 minutes to denature the RNA and then placed on ice to allow the primers to anneal to the poly A ends of the mRNA. After cooling 2 μl of 10× first strand buffer, 1 μl of RNAse inhibitor and 4 μl of dNTP mix were added to each tube, and the tube was incubated at 42° C. in a hybridization oven (Labnet Problot). As soon as the tube was heated, 1 μl of Reverse Transcriptase was added and the tubes were returned to 42±2° C. for 2 hours. At the end of the two hours the tubes were briefly centrifuged to collect all of the fluid at the bottom of the tube and then placed on ice.
Two tubes were prepared for the labeling process, one for Cy3 labeling (green) and one for Cy5 labeling (red). To the Cy3 tube 2 μg of aRNA prepared from the untreated/control sample (the actual color assignment for each sample is not important, but for consistency Cy3 is normally used for the untreated sample) and enough DEPC H2O was added to bring the total volume up to 4 μl. To the Cy5 tube 2 μg of aRNA prepared from the sample treated with the test material and enough DEPC H2O was added to bring the total volume up to 4 μl. To both tubes 5 μl of ASAP labeling buffer was added along with 1 μl of the specific dye for the tube (Cy3 or Cy5). The tubes were incubated for 15 minutes at 85±2° C. At the end of the 15 minutes the tubes were placed on ice to cool them and then add 2.5 μl of ASAP stop solution was added to each tube.

TNFα [2] = experiment: Human skin organ culture without UVB stressor, TNFα secretion; settings: no UVB; SDS 10% applied once; after incubation of 48 hours
Protocol: (§1) Topical Exposure Till 96 Hours without External UVB Radiation as Stressor on Human Skin Model
(§2) Day 1: Topical application of 3 μl of each solution on the epidermis of each skin explant. Incubate for 24 hours. (SDS Irritation control: topical application of 3 ul SDS 10% was applied on the skin model at day 1 only. The rest of the days samples were untouched).
(§3) Day 2: Topical application of 3 μl of each solution on the epidermis of each skin explant. Incubate for 24 hours in fresh medium (medium was not collected). (UVB control: after 24 hours incubation with 3 μl H2O skin was irradiated with 200 mJ/cm2 UVB. The rest of the experiment days sample were topically applied with H2O, as control).
(§4) Day 3: Topical application of 3 μl of each solution on the epidermis of each skin explant. Incubate for 24 hours in fresh medium (medium was collected)—48 hours of total topical incubation.
(§5) Day 4: Topical application of 3 μl of each solution on the epidermis of each skin explant. Incubate for 24 hours in fresh medium (medium was collected)—72 hours of total topical incubation.
(§6) Day 5: Topical application of 3 μl of each solution on the epidermis of each skin explant. Incubate for 24 hours in fresh medium (medium was collected)—96 hours of total topical incubation. MTT assay was performed.
FIG. 8 illustrates the TNFα secretion tested results. In FIG. 8 the TNFα secretion of the H2O sample was used as a control (0.35±0.05 pg/ml) for each time point.

IL-1α [3] = experiment: Human skin organ culture with UVB stressor, IL-1α secretion in the medium; settings: SDS 10% applied once, incubation of 24 hours
Protocol: (§7) Topical exposure till 48 hours in total (24 hr recovery following topical application+24 hr after exposure to UVB irradiation) with UVB radiation as stressor on human skin model
(§8) The following general procedure was used in the study:
(§9) Day 1: Topical application of 3 μl of each sample solution on the epidermis of each skin explant. Incubate for 24 hours. SDS 10% was applied only once, and was not farther irradiated with UVB.
(§10) Day 2: Skin explants were washed once with PBS and irradiated with UVB lamp at 200 mJ/cm2. After radiation it was incubated for 30 min and then topically apply each treatment (sample solution) again. Control was not irradiated under UVB light. UVB radiated control was without any treatment except radiation.
(§11) Day 3: Viability and Caspase3 activity were measured for the epidermis layer. The medium was collected for cytokines test.
FIG. 5 illustrates the IL-1α secretion results in the medium as observed with 3 to 4 repetition of the tests. In FIG. 5 the IL-1α secretion of the irradiated sample “UVB” was selected as 100% and it equals 8.1±1.0 pg/ml.

[4] = system: human skin explants (epidermis); experiment: Human skin organ culture with UVB stressor, viability by MTT assay; settings: SDS 10% applied only once, not irradiated, 24 hours of incubation
Protocol: as §7, §8, §9, §10, §11
FIG. 2 illustrates a flow diagram of topical exposure/treatment till 48 hours, 24 hr recovery following topical application +24 hr after exposure to UVB irradiation) with UVB radiation as stressor on human skin model experiment. In the Experiment the SDS irritation control sample was a skin explant that was topical applied with 3 μl SDS 10% solution at day 1 only.
The viability of the various skin explants was measured by the 5-dimethylthiazol-2-yl]-2,5-diphenyl tetrazolium bromide (MTT) assay.

IL-1α [5] = experiment: Human skin organ culture without UVB stressor, IL-1α secretion; settings: no UVB, SDS 10% applied once
Protocol: as §1, §2, §3, §4, §5, §6
FIG. 9A illustrates the IL-1α secretion results in the medium. In FIG. 9A the IL-1α secretion of the H2O sample was used as a control (9.0±0.7 pg/ml […]) for each time point. FIG. 9B is a magnification of FIG. 9A.

[6] = system: human skin explants (epidermis); experiment: Human skin organ culture without UVB stressor, topical exposure till 96 hours, viability by MTT assay; settings: no UVB; SDS 10% applied only once; after 96 hours
Protocol: as §1, §2, §3, §4, §5
Day 5: Topical application of 3 μl of each solution on the epidermis of each skin explant. Incubate for 24 hours in fresh medium (medium was collected)—96 hours of total topical incubation. MTT assay was performed. […]
The viability of the various skin explants was measured by the MTT assay.

TNFα [7] = experiment: Human skin organ culture with UVB stressor, TNFα secretion in the medium; settings: SDS 10%, one treatment, not irradiated
Protocol: as §7, §8, §9, §10, §11
FIG. 4 illustrates the TNFα secretion results in the medium as observed with 2 to 4 repetition of the tests. In FIG. 4 the TNFα secretion of the irradiated sample “UVB” was selected as 100% and it equals 53±30 pg/ml.

[8] = KEGG_NUCLEOTIDE_EXCISION_REPAIR
[9] = KEGG_SIGNALING_PATHWAYS_REGULATING_PLURIPOTENCY_OF_STEM_CELLS
[10] = WIKI_ASSEMBLY_OF_COLLAGEN_FIBRILS_AND_OTHER_MULTIMERIC_STRUCTURES

Compound: NC(=O)c1cccnc1 [Niacinamide]
- z-score ([1]; KEGG_APOPTOSIS): −0.6704
- z-score ([1]; KEGG_BASE_EXCISION_REPAIR): 0.1343
- Genes up and downregulation in pathway ([1]; KEGG_CELL_CYCLE): −
- z-score ([1]; KEGG_CELL_CYCLE): −1.1781
- z-score ([1]; KEGG_CIRCADIAN_RHYTHM_MAMMAL): 0.1529
- z-score ([1]; KEGG_FATTY_ACID_BIOSYNTHESIS): −1.579
- z-score ([1]; KEGG_FATTY_ACID_DEGRADATION): −0.3119
- z-score ([1]; KEGG_GLYCOLYSIS_GLUCONEOGENESIS): 0.7976
- z-score ([1]; KEGG_NF_KAPPA_B_SIGNALING_PATHWAY): −0.7978
- Genes up and downregulation in pathway [1, 8]: −
- z-score [1, 8]: −0.2743
- z-score ([1]; KEGG_OXIDATIVE_PHOSPHORYLATION): 0.1959
- Genes up and downregulation in pathway ([1]; KEGG_P53_SIGNALING_PATHWAY): −
- z-score ([1]; KEGG_P53_SIGNALING_PATHWAY): −0.04133
- z-score ([1]; KEGG_PROTEASOME): −1.4338
- z-score ([1]; KEGG_RETINOL_METABOLISM): 0.7797
- Genes up and downregulation in pathway [1, 9]: −
- z-score [1, 9]: −1.5828
- z-score ([1]; KEGG_SPHINGOLIPID_METABOLISM): −1.4272
- z-score ([1]; KEGG_TH1_AND_TH2_CELL_DIFFERENTIATION): −0.6106
- z-score ([1]; KEGG_TIGHT_JUNCTION): 1.7592
- z-score ([1]; KEGG_TNF_SIGNALING_PATHWAY): −1.6603
- z-score ([1]; KEGG_T_CELL_RECEPTOR_SIGNALING_PATHWAY): −0.515
- z-score ([1]; KEGG_WNT_SIGNALING_PATHWAY): −0.8093
- z-score ([1]; WIKI_ACTIVATION_OF_MATRIX_METALLOPROTEINASES): 1.5758
- Genes up and downregulation in pathway [1, 10]: −
- z-score [1, 10]: −0.4818
- z-score ([1]; WIKI_COLLAGEN_BIOSYNTHESIS_AND_MODIFYING_ENZYMES): 1.0367
- z-score ([1]; WIKI_COLLAGEN_DEGRADATION): 0.7489
- z-score ([1]; WIKI_DEGRADATION_OF_THE_EXTRACELLULAR_MATRIX): 0.02517
- Genes up and downregulation in pathway ([1]; WIKI_ELASTIC_FIBRE_FORMATION): −
- z-score ([1]; WIKI_ELASTIC_FIBRE_FORMATION): −1.0086
- z-score ([1]; WIKI_ELECTRON_TRANSPORT_CHAIN_IN_MITOCHONDRIA): −0.6757
- z-score ([1]; WIKI_EXTRACELLULAR_MATRIX_ORGANIZATION): 0.2738
- Genes up and downregulation in pathway ([1]; WIKI_KERATINIZATION): +
- regulation of WIKI_KERATINIZATION pathway (Z-Score heatmap, in words) ([1]; WIKI_KERATINIZATION): up-regulated
- z-score ([1]; WIKI_KERATINIZATION): 7.5403
- z-score ([1]; WIKI_NRF2_PATHWAY): 2.1898
- z-score ([1]; WIKI_RESPIRATORY_ELECTRON_TRANSPORT_ATP_SYNTHESIS): −0.7571
- z-score ([1]; WIKI_SPHINGOLIPID_METABOLISM): −0.1492
- Up-Regulated Genes (number) ([1]; 19254 genes evaluated): 133
- Up-Regulated Genes (number) ([1]; second column of Table 6): 70

Compound: CCCCCCCCCCCCOS(=O)(=O)[O-].[Na+] [SDS]
- TNFα secretion (TNFα [2]): below the detection lever
- IL-1α secretion (IL-1α [3]): dramatically increased
- viability (MTT) of epidermis [4]: caused epidermis death
- IL-1α secretion level, times of the control value (IL-1α [5]; after 48 hours): 6.5 times of the control value
- IL-1α secretion level, times of the control value (IL-1α [5]; after 72 hours and 96 hours): 10.6 times of the control value
- epidermis viability (MTT), % of the control value [6]: 15%
- TNFα secretion (TNFα [7]): significant reduction

From patent US20230172925A1, “SKIN-CARE COMPOSITIONS AND USES THEREOF” (AHAVA - DEAD SEA LABORATORIES LTD., priority 2019, published 2023)
